This is an account of results in US8704037B2, “Targeted cell death” (priority 2007, dated 2014).

Test [1] has as its system primary oligodendrocyte cultures. The test is described as follows: CID-induced cell death in primary oligodendrocyte cultures transduced with iCP9 virus. The test is classed as cell-based, rat. The conditions noted are these: CID 10 nM; iCP9-expressing primary oligodendrocyte cultures; fluorescent microscope and Methylene Blue viability staining. How it is done:
To induce timely cell death. Collected virus was used to transduce primary oligodendrocyte cultures that have been established. Cells were cultured and evaluated using fluorescent microscopy for the expression of GFP. The extent of GFP positive cells correlated with the viral infection efficacy. Cell protein isolation was conducted and protein isolates were subjected to Western blot transfer to detect stable expression of the iCP9 protein. The resultant membrane was probed with anti-caspase 9 antibody (R&D Systems Inc. #AF8301). Once the stable expression of iCP9 was confirmed at the protein level with Western blot techniques, the CID was applied to these cells in culture at a 10 nM concentration. […] Cell death was detected by viewing cultures under the fluorescent microscope and by using Methylene Blue (Sigma) viability staining of cells in culture after exposure to the CID. All experiments were run in parallel using the astrocyte-derived U87 cell line as a negative control.
Establish primary oligodendrocyte cultures. […] The status of cellular differentiation was monitored by noting the change in cellular morphology in culture. […]
Once this system and differentiation pattern was confirmed, A2B5^+ primary cell cultures were cultured in pΔmbpICP9/mEGFP viral supernatant for 8 hours. […] Infected cells expressed EGFP and were readily identified using the proper fluorescent filter system. […]

A further test concerns 293T cells. The test is described as follows: CID-induced apoptosis in 293T cells transfected with iCP9 lentivirus or control virus. Format: cell-based. The protocol: (§1) EGFP is also produced from the same viral plasmid and promoter. […] However, cells not transfected with virus (EGFP negative) persisted in culture. […] A Cell Death Detection ELISA Plus (Roche Inc) was also performed to determine the level of apoptosis in culture after cells infected with various dilutions of virus were exposed to CID.

Test [2] relates to cells infected with virus encoding iCP9. The test is described as follows: Cell Death Detection ELISA Plus after virus dilutions and CID. The test is classed as cell-based. The following applies: various dilutions of iCP9 virus, 4 hours after CID. How it is done: FIG. 6 is a graph showing cells exposed to various dilutions of virus encoding the iCP9 gene and then CID was added to the culture media. 4 hours later, Apoptosis ELISA was performed. […] Thus apoptosis correlated with iCP9 gene expression. X-axis is virus dilution. Y-axis is ELISA absorption at 405 nm.
as §1
(An ELISA detects its analyte on a solid surface through an enzyme-linked reagent.)

For test [3], the system named is MBP+ cells (oligodendrocytes). Description: Mixed cortical cultures infected with pLpMBP(iCP9)MG and exposed to CID. Format: cell-based, rat. The protocol: High density mixed cortical cultures were established after isolation of cerebral cortices from 3 Fischer rats as previously described. Cerebral cortices were removed and place in ice-cold Hanks' balanced salt solution, centrifuged and digested with trypsin at 37° for 10 minutes. Tissue was centrifuged and resuspended in minimal essential medium with Earle's salt (Invitrogen) containing heat-inactivated fetal bovine serum and horse serum. Cell suspension was passed through cell strainers and plated. After three hours the medium is changed to Neurobasal medium supplemented with B27 MinusAO (Invitrogen). Cultures were maintained for seven days and then immunohistochemical staining was performed to verify the composition of the cultures.
The mixed primary cortical cultures (consisting of all CNS cell types) were infected with pLpMBP(iCP9)MG and exposed to CID and then analyzed for cell death of oligodendrocytes (MBP+ cells). The MBP promoter was designed to induce cell death only in MBP+ cells, the majority of which are mature oligodendrocytes.

Test [4] deals with GFAP+ cells (astrocytes). The test is described as follows: Pan purified GFAP+ cultures infected with pLpGFAP(iCP9)MG and exposed to CID. The following applies: 4 hours after CID. Format: cell-based. The text has this: To test the specificity of the GFAP promoter system, GFAP+ pan purified cultures (cultures of purified astrocytes) were transfected with pLpGFAP(iCP9)MG and exposed to CID.

The next test has as its system A2B5+ cells. Description: Mixed cortical cultures infected with pLpPDGFR(iCP9)MG and exposed to CID. The following applies: four hours after CID, loss of viable cell morphology. The test is classed as cell-based, rat. The text has this: To confirm the cell specificity of the PDGFR-α promoter system, rat-derived primary cortical cultures were infected with pLpPDGFR(iCP9)MG virus. […] This provides data supporting the oligoprecursor-specificity of the PDGFR-α promoter system.

Test [5] has as its system GFAP+ cells (astrocytes). The test is described as follows: pLpGFAP(iCP9)MG injected into corpus callosum, then CID into ipsilateral ventricle. Format: in vivo, rat. The conditions noted are these: 24 hours after CID. How it is done:
The system was tested in vivo to ensure that cell specific apoptosis could be induced and the timing of cell ablation controlled as it was in vitro. To this end, virus was injected into the corpus callosum of adult Fischer rats and then three weeks later CID was administered into the ipsilateral ventricle. Rats were sacrificed 24-hours thereafter, brains removed in whole, fixed and cyrosectioned for analysis. […] The TUNEL (TdT-mediated dUTP-X nick end-labeling) system adds a tag on to DNA that has been fragmented during the apoptosis cascade allowing for labeling using standard immunohistochemistry. Thin sections derived from control rats receiving glycerol rather than CID were TUNEL negative. Consecutive thin sections were then stained with anti-GFAP antibody to identify astrocytes. […] This confirmed that in vivo the iCP9 system induces apoptosis only after CID administration and effectively ablates GFAP+ astrocytes.

The test system of test [6] is oligodendrocytes (MBP staining cells). Description: pLpMBP(iCP9)MG injected into corpus callosum, then CID. The test is classed as in vivo, rat. The following applies: after CID.
Test [7] has as its system infected region of the CNS. Description: pΔmbpICP9/mEGFP virus applied to the CNS, then intraperitoneal CID. Format: in vivo, rat. The conditions noted are these: CID via intraperitoneal injection after virus injection. The protocol: The virus described above, pΔmbpICP9/mEGFP, which contains the inducible caspase 9 sequence was applied to the CNS of adult rats to create an in vivo model of CNS demyelination. Administration of the viral vector allowed effective transfer of genetic information in a variable area of parenchyma based on the rate of administration (convective distribution) and viral titer. […] First, adult Fischer rats were anaesthetized by intraperitoneal injection of ketamine hydrochloride (80 mg/kg) and xylazine ([…]) and placed in a stereotactic frame. A midline scalp incision is made. Access to brain parenchyma was accomplished by placement of a right-sided burr hole through the skull, at various predetermined coordinates depending on the desired location of the lesion. […] The volume of viral vector (e.g., lentivirus) delivered depends upon the infection efficacy as determined herein and the target area size. After injection, the needle is left in place for five minutes and then slowly withdrawn over the next four minutes. The skin was closed with sutures.
For virus administration to the spinal cord an incision was made in the thoracic spine followed by a lamenectomy to expose the spinal cord. A No. 32S-gauge needle was passed into the posterior column at predetermined coordinates.

The test system of test [8] is primary oligodendrocyte cultures. The conditions noted are these: pΔmbpICP9/mEGFP virus; based on published data in other cell types (Straathof et al., 2005); cited from earlier work.

With `CC[C@H](C(=O)N1CCCC[C@H]1C(=O)O[C@H](CCc1ccc(OC)c(OC)c1)c1cccc(OCC(=O)NCC(CNC(=O)COc2cccc([C@@H](CCc3ccc(OC)c(OC)c3)OC(=O)[C@@H]3CCCCN3C(=O)[C@@H](CC)c3cc(OC)c(OC)c(OC)c3)c2)CN(C)C)c1)c1cc(OC)c(OC)c(OC)c1` [CID], in test [1], the “cell death of infected cells” value is “induced the cellular death of infected cells”. Further, the “apoptosis of EGFP-positive cells after CID” value in the test with 293T cells (293T cells, pLpCMV(iCP9)MG virus) is recorded as “rapidly underwent apoptosis”. Moreover, the “EGFP-positive cells after CID, control virus” value with 293T cells (cultures transfected with control virus pLpCMVXMG) was “EGFP-positive cells persisted”. Further, the “apoptosis level (ELISA absorption at 405 nm)” value in test [2] was “Apoptosis levels decreased with dilution of virus”. The “morphology of A2B5/EGFP, GFAP/EGFP and O4/EGFP positive cells” value in test [3] (non-target cell types) was “appeared morphologically normal before and after CID exposure”. In test [3] (relative to cells not exposed to CID), the “morphology of MBP-positive, EGFP-positive cells after CID” value is reported as “appeared disrupted”. Further, the “EGFP positive cells after CID” value with GFAP+ cells (astrocytes) [4] was “a decrease in EGFP positive cells”. Further, the “apoptosis of A2B5+ cells” value with A2B5+ cells is recorded as “identified undergoing apoptosis”. Further, in the test with GFAP+ cells (astrocytes) [5], the “anti-GFAP staining at area of viral infection” value is “GFAP+ cells were not detected at the area of viral infection”. Also, in the test on GFAP+ cells (astrocytes) [5] (glycerol controls TUNEL negative), the TUNEL staining entry is on record as “TUNEL positive staining at the site of virus infection”. For the same molecule, the “anti-MBP staining at site of infection” value in test [6] (glycerol controls normal) was “failed to stain with anti-MBP antibody at the site of infection”. The TUNEL positive cells result in [6] (not in glycerol controls) is given as “TUNEL positive cells were identified at the site of infection”. In addition, the “apoptosis of infected CNS region” value in [7] is “resulting in apoptosis of the infected region of the CNS”. Also, the “time to cell death of oligodendrocytes after CID” value in test [8] was 4 to 6 h.
